Measured values reported in ChEMBL document CHEMBL1201862, “PubChem BioAssay data set” (2004).
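Exposure lasted 48 hours, with cells grown in 96-well plates and compounds tested at five concentrations. The concentration for 50% growth inhibition is given as GI50.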 Active and inactive are the calls of the source. No stated cut-off is given here; in the data, active = GI50 up to about 1.1 µM and inactive = higher.

What was measured:
Assay in all cases: NCI tumour cell line growth inhibition, 48 h
[1] = tested on: 786-0
[2] = tested on: ACHN
[3] = tested on: CAKI-1
[4] = tested on: CCRF-CEM
[5] = tested on: HCC 2998
[6] = tested on: HL-60
[7] = tested on: HT-29
[8] = tested on: LOX IMVI
[9] = tested on: M14
[10] = tested on: Malme-3M
[11] = tested on: OVCAR-4
[12] = tested on: SF-295
[13] = tested on: SF-539
[14] = tested on: SNB-75
[15] = tested on: SR
[16] = tested on: TK-10
[17] = tested on: UACC-62
[18] = tested on: UO-31
[19] = tested on: SK-MEL-2
[20] = tested on: SK-MEL-5

Measured: GI50

CC1CCC(=O)C(C(O)CC2CC(=O)N(c3ccccc3)C(=O)C2)C1 (configuration not stated)
inactive: [1] > 100 µM | [2] > 100 µM | [3] > 100 µM | [4] > 100 µM | [5] > 100 µM | [6] > 100 µM | [7] > 100 µM | [8] > 100 µM | [9] > 100 µM | [10] > 100 µM | [11] > 100 µM | [12] > 100 µM | [13] > 100 µM | [14] > 100 µM | [15] > 100 µM | [16] > 100 µM | [17] > 100 µM | [18] > 100 µM

O=c1cnn(C/C=C\CO)c(=O)[nH]1
inactive: [2] > 100 µM | [3] > 100 µM | [4] > 100 µM | [5] > 100 µM | [6] > 100 µM | [8] > 100 µM | [9] > 100 µM | [10] > 100 µM | [13] > 100 µM | [19] > 100 µM | [20] > 100 µM | [14] > 100 µM | [15] > 100 µM | [16] 75.2 µM | [18] > 100 µM

C[C@]12CC[C@H](OC(=O)Cc3ccc(N(CCCl)CCCl)cc3)CC1=CC[C@@H]1[C@@H]2CC[C@]2(C)C(=O)CC[C@@H]12
inactive: [2] > 100 µM | [3] > 100 µM | [5] > 100 µM | [6] > 100 µM | [7] > 100 µM | [8] > 100 µM | [9] > 100 µM | [10] > 100 µM | [13] > 100 µM | [19] > 100 µM | [20] > 100 µM | [14] > 100 µM | [15] 3.61 µM | [16] > 100 µM | [18] > 100 µM

Oc1ccc(-c2nc3ccc4ccccc4c3c3c2CCCC3)c(O)c1
inactive: [1] 11.7 µM | [2] 28.8 µM | [3] 42.5 µM | [5] 36.5 µM | [6] 2.55 µM | [7] 11.9 µM | [8] 32.7 µM | [9] 15.2 µM | [10] 19.4 µM | [11] 66.8 µM | [12] 37.2 µM | [13] 42.3 µM | [19] 9.08 µM | [20] 9.68 µM | [14] 28.7 µM | [15] 20.2 µM | [16] 37.1 µM | [17] 19.5 µM | [18] 29.9 µM

O=C(/C=C/c1ccccc1)Oc1cccc(O)c1
inactive: [1] 77.8 µM | [2] > 100 µM | [3] 49.1 µM | [5] > 100 µM | [6] 16.9 µM | [7] 37.2 µM | [8] 27.5 µM | [9] 43.1 µM | [10] 19.5 µM | [11] 36.3 µM | [12] 17.8 µM | [13] > 100 µM | [19] > 100 µM | [20] 37.5 µM | [14] 65 µM | [15] 18.2 µM | [16] > 100 µM | [17] > 100 µM | [18] > 100 µM

CCC(Sc1cc(Cl)c(C)cc1S(=O)(=O)Nc1nc(N)nc(N(C)C)n1)C(=O)O (configuration not stated)
inactive: [1] > 10 µM | [2] > 10 µM | [3] > 10 µM | [4] > 10 µM | [5] > 10 µM | [6] > 10 µM | [7] > 10 µM | [8] > 10 µM | [9] > 10 µM | [10] > 10 µM | [11] > 10 µM | [12] > 10 µM | [13] > 10 µM | [19] > 10 µM | [20] > 10 µM | [14] > 10 µM | [15] > 10 µM | [16] > 10 µM | [18] > 10 µM

CCCCCCOP(=O)(OCCCCCC)C(NC(=O)OCC)(C(F)(F)F)C(F)(F)F
inactive: [2] 28.8 µM | [3] 51.6 µM | [4] 42.1 µM | [5] > 10 µM | [6] > 100 µM | [7] 51.4 µM | [8] 24.6 µM | [9] 32 µM | [10] 34.4 µM | [12] 30.3 µM | [13] 36.3 µM | [19] 22.9 µM | [20] 20 µM | [14] 64.3 µM | [15] 50.8 µM | [16] 43.7 µM | [17] 41.6 µM | [18] 28.6 µM

COc1ccc2c(c1)O[C@H]1c3ccc(O)cc3OC[C@@H]21
inactive: [2] 27.2 µM | [3] 24.1 µM | [4] 19.2 µM | [5] 22.9 µM | [6] 18.1 µM | [7] 34.4 µM | [8] 13 µM | [9] 19.2 µM | [10] 34.8 µM | [11] 34.6 µM | [12] 35.2 µM | [13] 20.7 µM | [19] 26.5 µM | [20] 17.3 µM | [14] 11.2 µM | [15] 14.3 µM | [16] 35.3 µM | [17] 14.3 µM | [18] 20 µM
